In the supplement of paper PMC10307832:

Tests used:
Experiment in all cases: relative viability (nuclei count vs DMSO), 5 days (fraction); higher = more cells survive
[1] = tested on: LXF-289
How it was run: (§1)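 Lung cancer cell lines were pin-tool dosed in 1536-well plates on the day after seeding, with either a lone drug or a fixed anchor-drug dose plus five library-drug doses (not always all listed) in √10 steps. Nuclei were counted on 4× images after 5 days. Relative viability is the ratio of treated-well to vehicle-well nuclei counts, with each value a median of duplicate plates.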

[2] = tested on: SW 1573
How it was run: as §1

[3] = tested on: NCI-H661
How it was run: as §1

[4] = tested on: NCI-H727
How it was run: as §1

[5] = tested on: PC-14
How it was run: as §1

[6] = tested on: NCI-H2023
How it was run: as §1

[7] = tested on: NCI-H2009
How it was run: as §1

[8] = tested on: EMC-BAC-2
How it was run: as §1

[9] = tested on: NCI-H2085
How it was run: as §1

[10] = tested on: NCI-H1915
How it was run: as §1

[11] = tested on: NCI-H647
How it was run: as §1

[12] = tested on: SK-LU-1
How it was run: as §1

[13] = tested on: NCI-H322M
How it was run: as §1

[14] = tested on: NCI-H2347
How it was run: as §1

[15] = tested on: HOP-62
How it was run: as §1

[16] = tested on: NCI-H1993
How it was run: as §1

[17] = tested on: BEN
How it was run: as §1

[18] = tested on: NCI-H2126
How it was run: as §1

[19] = tested on: NCI-H358
How it was run: as §1

[20] = tested on: LCLC-97TM1
How it was run: as §1

[21] = tested on: NCI-H2342
How it was run: as §1

[22] = tested on: H3255
How it was run: as §1

[23] = tested on: NCI-H1650
How it was run: as §1

[24] = tested on: NCI-H1563
How it was run: as §1

SMILES: CC(C)Oc1cc(Nc2nc(N[C@@H](C)c3ccc(F)cn3)ncc2Cl)n[nH]1 [AZ23] + CCNC(=O)c1noc(-c2cc(C(C)C)c(O)cc2O)c1-c1ccc(CN2CCOCC2)cc1 [Luminespib] (partner 0.01 µM)
- relative viability ([1]; first compound 0.01 µM): 0.884
- relative viability ([1]; first compound 0.03162 µM): 0.745
- relative viability ([1]; first compound 0.3162 µM): 0.598
- relative viability ([2]; first compound 0.01 µM): 0.189
- relative viability ([2]; first compound 0.03162 µM): 0.164
- relative viability ([2]; first compound 0.3162 µM): 0.227
- relative viability ([3]; first compound 0.01 µM): 1.06
- relative viability ([3]; first compound 0.03162 µM): 0.867
- relative viability ([3]; first compound 0.3162 µM): 0.984
- relative viability ([4]; first compound 0.01 µM): 0.354
- relative viability ([4]; first compound 0.03162 µM): 0.311
- relative viability ([4]; first compound 0.3162 µM): 0.454
- relative viability ([5]; first compound 0.03162 µM): 0.21
- relative viability ([5]; first compound 0.3162 µM): 0.21
- relative viability ([6]; first compound 0.03162 µM): 0.829
- relative viability ([6]; first compound 0.3162 µM): 0.674
- relative viability ([7]; first compound 0.01 µM): 1.05
- relative viability ([7]; first compound 0.03162 µM): 1.17
- relative viability ([7]; first compound 0.3162 µM): 1.1
- relative viability ([8]; first compound 0.01 µM): 1.11
- relative viability ([8]; first compound 0.03162 µM): 1.3
- relative viability ([8]; first compound 0.3162 µM): 1.23
- relative viability ([9]; first compound 0.01 µM): 0.321
- relative viability ([9]; first compound 0.03162 µM): 0.422
- relative viability ([9]; first compound 0.3162 µM): 0.463
- relative viability ([10]; first compound 0.01 µM): 1.17
- relative viability ([10]; first compound 0.03162 µM): 0.866
- relative viability ([10]; first compound 0.3162 µM): 0.805
- relative viability ([11]; first compound 0.01 µM): 0.125
- relative viability ([11]; first compound 0.03162 µM): 0.107
- relative viability ([11]; first compound 0.3162 µM): 0.149
- relative viability ([12]; first compound 0.03162 µM): 0.216
- relative viability ([12]; first compound 0.3162 µM): 0.18
- relative viability ([13]; first compound 0.03162 µM): 0.879
- relative viability ([13]; first compound 0.3162 µM): 1.08
- relative viability ([14]; first compound 0.01 µM): 0.486
- relative viability ([14]; first compound 0.03162 µM): 0.62
- relative viability ([14]; first compound 0.3162 µM): 0.41
- relative viability ([15]; first compound 0.01 µM): 0.841
- relative viability ([15]; first compound 0.03162 µM): 0.981
- relative viability ([15]; first compound 0.3162 µM): 1.01
- relative viability ([16]; first compound 0.01 µM): 0.785
- relative viability ([16]; first compound 0.03162 µM): 0.881
- relative viability ([16]; first compound 0.3162 µM): 0.854
- relative viability ([17]; first compound 0.01 µM): 0.287
- relative viability ([17]; first compound 0.03162 µM): 0.378
- relative viability ([17]; first compound 0.3162 µM): 0.243
- relative viability ([18]; first compound 0.01 µM): 0.954
- relative viability ([18]; first compound 0.03162 µM): 1
- relative viability ([18]; first compound 0.3162 µM): 0.875
- relative viability ([19]; first compound 0.01 µM): 0.416
- relative viability ([19]; first compound 0.03162 µM): 0.395
- relative viability ([19]; first compound 0.3162 µM): 0.349
- relative viability ([20]; first compound 0.01 µM): 0.846
- relative viability ([20]; first compound 0.03162 µM): 0.783
- relative viability ([20]; first compound 0.3162 µM): 0.796
- relative viability ([21]; first compound 0.01 µM): 0.658
- relative viability ([21]; first compound 0.03162 µM): 0.679
- relative viability ([21]; first compound 0.3162 µM): 0.718
- relative viability ([22]; first compound 0.01 µM): 0.574
- relative viability ([22]; first compound 0.03162 µM): 0.888
- relative viability ([22]; first compound 0.3162 µM): 0.854
- relative viability ([23]; first compound 0.03162 µM): 0.202
- relative viability ([23]; first compound 0.3162 µM): 0.195
- relative viability ([24]; first compound 0.01 µM): 0.544
- relative viability ([24]; first compound 0.03162 µM): 0.571
- relative viability ([24]; first compound 0.3162 µM): 0.596
